Measured values: patent publication US20200045961A1, “HERBICIDAL MIXTURE FOR USE ON WEEDS” (Adama Agan Ltd., priority 2017, published 2020)

Key:
Assay in all cases: Field trial, tank mix of Propaquizafop + Fomesafen on Soybean, weed control
Format in all cases: in vivo
Dinebra arabica = system: Dinebra arabica
From the text: (§1) In the context of the present subject matter, the term “synergy” is as defined by Colby S. R. in an article entitled “Calculation of the synergistic and antagonistic responses of herbicide combinations” published in the journal Weeds, 1967, 15, p. 20-22, incorporated herein by reference in its entirety. The action expected for a given combination of […] active ingredients can be calculated as follows: […]
(§2) The herbicides were applied using the following applications rates:
(§3) The applications were applied 20 DAS. Design & Plot size: RBD & 25 Sq.mt.
(§4) Species wise weed count may be recorded at 15, 30 and 45 DAA (Days After Application). A subjective score of damage done by the herbicide on the plants may be given based on the weed count compared to the untreated checks. A score of 100% indicated complete control and a score of 0% indicates zero herbicide effect.

Acalypha indica = system: Acalypha indica
From the text: as §1
(§5) When the percentage of herbicidal control observed for the combination is greater than the expected percentage, there is a synergistic effect. When the percentage of control observed for the combination is equal to the expected percentage, there is an additive effect and wherein the percentage of herbicidal control observed for the combination is lower than the expected percentage, there is an antagonistic effect.
as §2, §3, §4
(§6) The % control observed may be calculated as follows: […]
(§7) The synergy of the mixture of fomesafen and propaquizafop may be calculated using the formula: […]

Commelina benghalensis = system: Commelina benghalensis
From the text: as §1, §5, §2, §3, §4, §6, §7

Amaranthus viridis = system: Amaranthus viridis
From the text: as §1, §5, §2, §3, §4, §6, §7

Echinochloa colona = system: Echinochloa colona
From the text: as §1, §5, §2, §3, §4, §6, §7

Eleusine indica = system: Eleusine indica
From the text: as §1, §5, §2, §3, §4, §6, §7

Digera arvensis = system: Digera arvensis
From the text: as §1, §5, §2, §3, §4, §6, §7

CS(=O)(=O)NC(=O)c1cc(Oc2ccc(C(F)(F)F)cc2Cl)ccc1[N+](=O)[O-] [Fomesafen, 5-[2-chloro-4-(trifluoromethyl)phenoxy]-N-(methylsulfonyl)-2-nitrobenzamide]
% control observed (Dinebra arabica; 500 ml/Acre, 15DAA): 2.62%
% control observed (Dinebra arabica; 500 ml/Acre, 45DAA): 0.21%
% control observed (Dinebra arabica; 750 ml/Acre, 15DAA): 15.2%
% control observed (Dinebra arabica; 750 ml/Acre, 30DAA): 11.1%
% control observed (Dinebra arabica; 750 ml/Acre, 45DAA): 10%
% control observed (Dinebra arabica; 1000 ml/Acre, 15DAA): 23.4%
% control observed (Dinebra arabica; 1000 ml/Acre, 30DAA): 16.4%
% control observed (Dinebra arabica; 1000 ml/Acre, 45DAA): 14.3%
% control observed (Acalypha indica; 500 ml/Acre, 15DAA): 58.2%
% control observed (Acalypha indica; 500 ml/Acre, 30DAA): 55.4%
% control observed (Acalypha indica; 500 ml/Acre, 45DAA): 53.8%
% control observed (Acalypha indica; 750 ml/Acre, 15DAA): 63.8%
% control observed (Acalypha indica; 750 ml/Acre, 30DAA): 61.7%
% control observed (Acalypha indica; 750 ml/Acre, 45DAA): 60.6%
% control observed (Acalypha indica; 1000 ml/Acre, 15DAA): 75.9%
% control observed (Acalypha indica; 1000 ml/Acre, 30DAA): 73.6%
% control observed (Acalypha indica; 1000 ml/Acre, 45DAA): 72.6%
% control observed (Commelina benghalensis; 500 ml/Acre, 15DAA): 66.2%
% control observed (Commelina benghalensis; 500 ml/Acre, 30DAA): 64.2%
% control observed (Commelina benghalensis; 500 ml/Acre, 45DAA): 62.7%
% control observed (Commelina benghalensis; 750 ml/Acre, 15DAA): 72.8%
% control observed (Commelina benghalensis; 750 ml/Acre, 30DAA): 70.2%
% control observed (Commelina benghalensis; 750 ml/Acre, 45DAA): 69.7%
% control observed (Commelina benghalensis; 1000 ml/Acre, 15DAA): 77.8%
% control observed (Commelina benghalensis; 1000 ml/Acre, 30DAA): 75%
% control observed (Commelina benghalensis; 1000 ml/Acre, 45DAA): 72.5%
% control observed (Amaranthus viridis; 500 ml/Acre, 15DAA): 67.7%
% control observed (Amaranthus viridis; 500 ml/Acre, 30DAA): 66.9%
% control observed (Amaranthus viridis; 500 ml/Acre, 45DAA): 64.8%
% control observed (Amaranthus viridis; 750 ml/Acre, 15DAA): 71.3%
% control observed (Amaranthus viridis; 750 ml/Acre, 30DAA): 70.5%
% control observed (Amaranthus viridis; 750 ml/Acre, 45DAA): 69.1%
% control observed (Amaranthus viridis; 1000 ml/Acre, 15DAA): 74.7%
% control observed (Amaranthus viridis; 1000 ml/Acre, 30DAA): 73.7%
% control observed (Amaranthus viridis; 1000 ml/Acre, 45DAA): 71.1%
% control observed (Echinochloa colona; 500 ml/Acre, 15DAA): 8.91%
% control observed (Echinochloa colona; 500 ml/Acre, 30DAA): 6.65%
% control observed (Echinochloa colona; 500 ml/Acre, 45DAA): 5.02%
% control observed (Echinochloa colona; 750 ml/Acre, 15DAA): 14%
% control observed (Echinochloa colona; 750 ml/Acre, 30DAA): 10.7%
% control observed (Echinochloa colona; 750 ml/Acre, 45DAA): 7.5%
% control observed (Echinochloa colona; 1000 ml/Acre, 15DAA): 18.2%
% control observed (Echinochloa colona; 1000 ml/Acre, 30DAA): 15.8%
% control observed (Echinochloa colona; 1000 ml/Acre, 45DAA): 13.6%
% control observed (Eleusine indica; 500 ml/Acre, 15DAA): 8.2%
% control observed (Eleusine indica; 500 ml/Acre, 30DAA): 4.7%
% control observed (Eleusine indica; 500 ml/Acre, 45DAA): 3.3%
% control observed (Eleusine indica; 750 ml/Acre, 15DAA): 12.6%
% control observed (Eleusine indica; 750 ml/Acre, 30DAA): 6.3%
% control observed (Eleusine indica; 750 ml/Acre, 45DAA): 5%
% control observed (Eleusine indica; 1000 ml/Acre, 15DAA): 17.1%
% control observed (Eleusine indica; 1000 ml/Acre, 30DAA): 8.9%
% control observed (Eleusine indica; 1000 ml/Acre, 45DAA): 7.5%
% control observed (Digera arvensis; 500 ml/Acre, 15DAA): 70%
% control observed (Digera arvensis; 500 ml/Acre, 30DAA): 68.5%
% control observed (Digera arvensis; 500 ml/Acre, 45DAA): 66.6%
% control observed (Digera arvensis; 750 ml/Acre, 15DAA): 74.2%
% control observed (Digera arvensis; 750 ml/Acre, 30DAA): 71.5%
% control observed (Digera arvensis; 750 ml/Acre, 45DAA): 70.5%
% control observed (Digera arvensis; 1000 ml/Acre, 15DAA): 78.2%
% control observed (Digera arvensis; 1000 ml/Acre, 30DAA): 75.2%
% control observed (Digera arvensis; 1000 ml/Acre, 45DAA): 74%

CC(C)=NOCCOC(=O)[C@@H](C)Oc1ccc(Oc2cnc3cc(Cl)ccc3n2)cc1 [Propaquizafop, (R)-2-[[(1-methylethylidene)amino]oxy]ethyl 2-[4-[(6-chloro-2-quinoxalinyl)oxy]phenoxy]propanoate]
% control observed (Dinebra arabica; 400 ml/Acre, 15DAA): 68.2%
% control observed (Dinebra arabica; 400 ml/Acre, 30DAA): 67%
% control observed (Dinebra arabica; 400 ml/Acre, 45DAA): 65%
% control observed (Dinebra arabica; 500 ml/Acre, 15DAA): 72.3%
% control observed (Dinebra arabica; 500 ml/Acre, 30DAA): 69.1%
% control observed (Dinebra arabica; 500 ml/Acre, 45DAA): 66%
% control observed (Acalypha indica; 400 ml/Acre, 15DAA): 7.1%
% control observed (Acalypha indica; 400 ml/Acre, 30DAA): 3.7%
% control observed (Acalypha indica; 400 ml/Acre, 45DAA): 2.9%
% control observed (Acalypha indica; 500 ml/Acre, 15DAA): 25.2%
% control observed (Acalypha indica; 500 ml/Acre, 30DAA): 12.3%
% control observed (Acalypha indica; 500 ml/Acre, 45DAA): 9.8%
% control observed (Commelina benghalensis; 400 ml/Acre, 15DAA): 6.8%
% control observed (Commelina benghalensis; 400 ml/Acre, 30DAA): 3.2%
% control observed (Commelina benghalensis; 400 ml/Acre, 45DAA): 2%
% control observed (Commelina benghalensis; 500 ml/Acre, 15DAA): 16.6%
% control observed (Commelina benghalensis; 500 ml/Acre, 30DAA): 10.5%
% control observed (Commelina benghalensis; 500 ml/Acre, 45DAA): 7.7%
% control observed (Amaranthus viridis; 400 ml/Acre, 15DAA): 8.2%
% control observed (Amaranthus viridis; 400 ml/Acre, 30DAA): 2.6%
% control observed (Amaranthus viridis; 400 ml/Acre, 45DAA): 2.3%
% control observed (Amaranthus viridis; 500 ml/Acre, 15DAA): 13.6%
% control observed (Amaranthus viridis; 500 ml/Acre, 30DAA): 7.6%
% control observed (Amaranthus viridis; 500 ml/Acre, 45DAA): 7.1%
% control observed (Echinochloa colona; 400 ml/Acre, 15DAA): 72.9%
% control observed (Echinochloa colona; 400 ml/Acre, 30DAA): 70.8%
% control observed (Echinochloa colona; 400 ml/Acre, 45DAA): 70.4%
% control observed (Echinochloa colona; 500 ml/Acre, 15DAA): 75.8%
% control observed (Echinochloa colona; 500 ml/Acre, 30DAA): 73.9%
% control observed (Echinochloa colona; 500 ml/Acre, 45DAA): 72.9%
% control observed (Eleusine indica; 400 ml/Acre, 15DAA): 64%
% control observed (Eleusine indica; 400 ml/Acre, 30DAA): 56.7%
% control observed (Eleusine indica; 400 ml/Acre, 45DAA): 53.4%
% control observed (Eleusine indica; 500 ml/Acre, 15DAA): 65.5%
% control observed (Eleusine indica; 500 ml/Acre, 30DAA): 57.7%
% control observed (Eleusine indica; 500 ml/Acre, 45DAA): 55.2%
% control observed (Digera arvensis; 400 ml/Acre, 15DAA): 13.9%
% control observed (Digera arvensis; 400 ml/Acre, 30DAA): 9.3%
% control observed (Digera arvensis; 400 ml/Acre, 45DAA): 2.1%
% control observed (Digera arvensis; 500 ml/Acre, 15DAA): 19.5%
% control observed (Digera arvensis; 500 ml/Acre, 30DAA): 15.5%
% control observed (Digera arvensis; 500 ml/Acre, 45DAA): 14.4%
